In PMC9316017, “Succinimido–Ferrocidiphenol Complexed with Cyclodextrins Inhibits Glioblastoma Tumor Growth In Vitro and In Vivo without Noticeable Adverse Toxicity” (Molecules, 2022):
Like-named read-outs stand apart in the source and are kept apart here.

Tests used:
[1] = tested on: fifteen molecularly diverse glioblastoma patient-derived cell lines (PDCLs); parameters: method as in PMID 34638742; settings: cited from earlier work
[2] = Dissolution of the lyophilized complex in water; assay type: physicochemical; settings: 25 °C
Method: To investigate the dissolution, an amount (5 mg) of the lyophilized SuccFerr:RAMEßCD complex was suspended in water. The suspension was incubated at 25 °C in a shaking-bath (200 strokes/min, Heito, France). One-milliliter aliquots were taken at various time intervals up to 24 h and centrifuged× 7200g, 5 min, (Denver Instruments, Bohemia, NY, USA). Each supernatant was analyzed by HPLC to assess the drug contents. The results are presented as mean ± SD of triplicate experiments. A dialysis was also realized under magnetic stirring with a 14,000 Da cut-off bag, containing 2 mL of an aqueous solution of 5 mg of SuccFerr:RAMEßCD and 498 mL of distilled water. Aliquots were taken and analyzed as previously described.

In the case of `O=C1CCC(=O)N1CCCC(=C(c1ccc(O)cc1)c1ccc(O)cc1)[c-]1cccc1.[Fe+2].c1cc[cH-]c1` [SuccFerr, N-[4-ferrocenyl,5-5-bis (4-hydroxyphenyl)-pent-4-enyl]-succinimide], the “IC50 ratio (highest/lowest)” value [1] is given as “≈ 3000”, the IC50 ([1]; read-out: highest IC50 across the PDCLs) is given as roughly 30 µM and the IC50 ([1]; read-out: lowest IC50 across the PDCLs) is given as 0.01 µM. The “dissolution in distilled water” value [2] was “cannot be dissolved and was undetectable”.
